{"source": "the Kinase Knowledgebase extract (Sharma et al. 2016)", "data": [{"biological_target": "PIK3CA (human) (UniProt P42336)", "sequence (P42336 whole entry, looked up)": "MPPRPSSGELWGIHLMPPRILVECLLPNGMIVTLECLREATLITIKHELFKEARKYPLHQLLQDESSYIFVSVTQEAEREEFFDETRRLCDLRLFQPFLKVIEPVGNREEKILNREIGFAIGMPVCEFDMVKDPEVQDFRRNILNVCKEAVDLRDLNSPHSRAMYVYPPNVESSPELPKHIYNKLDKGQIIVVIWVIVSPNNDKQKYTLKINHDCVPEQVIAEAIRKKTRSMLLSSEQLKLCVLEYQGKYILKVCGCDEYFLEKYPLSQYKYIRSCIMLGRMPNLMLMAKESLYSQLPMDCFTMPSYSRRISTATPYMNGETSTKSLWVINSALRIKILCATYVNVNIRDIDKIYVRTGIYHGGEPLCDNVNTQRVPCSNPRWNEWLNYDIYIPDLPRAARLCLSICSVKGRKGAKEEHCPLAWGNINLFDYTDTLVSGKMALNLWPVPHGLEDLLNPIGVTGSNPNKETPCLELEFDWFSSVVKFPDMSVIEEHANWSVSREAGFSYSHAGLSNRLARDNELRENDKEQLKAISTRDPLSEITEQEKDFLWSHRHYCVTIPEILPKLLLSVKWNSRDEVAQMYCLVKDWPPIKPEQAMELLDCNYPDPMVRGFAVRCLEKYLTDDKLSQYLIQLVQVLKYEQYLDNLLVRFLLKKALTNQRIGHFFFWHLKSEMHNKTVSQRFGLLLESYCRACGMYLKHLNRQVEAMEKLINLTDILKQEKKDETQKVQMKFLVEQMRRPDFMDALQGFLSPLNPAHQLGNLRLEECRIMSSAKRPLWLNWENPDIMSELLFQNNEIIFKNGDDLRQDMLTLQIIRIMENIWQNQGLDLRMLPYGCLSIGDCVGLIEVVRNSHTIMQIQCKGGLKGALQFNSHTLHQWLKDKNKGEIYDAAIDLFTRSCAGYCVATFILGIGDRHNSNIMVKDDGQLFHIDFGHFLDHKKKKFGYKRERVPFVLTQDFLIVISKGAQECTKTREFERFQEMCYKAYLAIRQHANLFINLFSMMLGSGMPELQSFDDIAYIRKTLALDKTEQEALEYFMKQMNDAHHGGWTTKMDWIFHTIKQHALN", "experiment": "Inhibition of PIK3CA Kinase Activity", "units": {"IC50": "µM"}, "values": [{"smiles": "CCCc1nc2ccc(-c3ccc4c(c3)CN(c3ccnc5ccccc35)CCO4)cc2[nH]1", "IC50": "0.05 to 0.25"}, {"smiles": "CC[C@H]1CCc2c(ncnc2N2CCOc3ccc(-c4cnc5nc([C@H](C)N)[nH]c5c4)cc3C2)C1", "IC50": "0.05 to 0.25"}, {"smiles": "CNS(=O)(=O)c1cc(-c2ccc3c(c2)CN(c2ncnc4c2CC(C)(C)CC4)CCO3)cnc1N", "IC50": "≤ 0.01"}, {"smiles": "CC1(C)CCc2ncnc(N3CCOc4ccc(-c5cnc(N)c(S(=O)(=O)NC(C)(C)CN)c5)cc4C3)c2C1", "IC50": "0.05 to 0.25"}, {"smiles": "CN(C)c1ncc(-c2ccc3c(c2)CN(c2ncnc4c2CC(C)(C)CC4)CCO3)cc1NS(C)(=O)=O", "IC50": "0.01 to 0.05"}, {"smiles": "Cc1nc(N)nc(N2CCOc3ccc(-c4cnc5[nH]cnc5c4)cc3C2)c1Cc1ccc(F)cc1", "IC50": "≤ 0.01"}, {"smiles": "CCCc1nc2cc(-c3ccc4c(c3)CN(c3ncnc5c3CC(C)(C)CC5)CCO4)cnc2[nH]1", "IC50": "0.05 to 0.25"}, {"smiles": "Cc1nc(Nc2ccccc2)c(C)c(N2CCOc3ccc(-c4ccc5nc[nH]c5c4)cc3C2)n1", "IC50": "0.05 to 0.25"}, {"smiles": "Cc1c(NCC2CCN(C)CC2)ncnc1N1CCOc2ccc(-c3cnc4nc(C5CC5)[nH]c4c3)cc2C1", "IC50": "0.25 to 1"}, {"smiles": "Cc1nc2ncc(-c3ccc4c(c3)CN(c3ncnc5c3CC(C)(C)CC5)CCO4)cc2[nH]1", "IC50": "0.01 to 0.05"}, {"smiles": "Cc1nc2ccc(-c3ccc4c(c3)CN(c3ccnc(C)c3Cc3ccccc3)CCO4)cc2[nH]1", "IC50": "0.01 to 0.05"}, {"smiles": "Cc1ncnc(N2CCOc3ccc(-c4ccc5[nH]nc(N)c5c4)cc3C2)c1Cc1ccc(F)cc1", "IC50": "0.05 to 0.25"}, {"smiles": "COc1c(OCc2ccc3ccccc3n2)ccc2c(N3CCOc4ccc(-c5ccc6nc(C)[nH]c6c5)cc4C3)ncnc12", "IC50": "0.25 to 1"}, {"smiles": "Cc1nc2ccc(-c3ccc4c(c3)CN(c3nc(CN5CC[C@@H](F)C5)nc5c3CC(C)(C)CC5)CCO4)cc2[nH]1", "IC50": "0.01 to 0.05"}, {"smiles": "Cc1nc2ncc(-c3ccc4c(c3)CN(c3ncnc(N5CCC5)c3C)CCO4)cc2[nH]1", "IC50": "0.05 to 0.25"}, {"smiles": "CC1(C)CCc2ncnc(N3CCOc4ccc(-c5cnc(N)c(S(=O)(=O)NC[C@@H]6CCNC6)c5)cc4C3)c2C1", "IC50": "0.01 to 0.05"}, {"smiles": "Cc1nc2ncc(-c3ccc4c(c3)CN(c3nc(CN(C)C)nc(C)c3CC3CC3)CCO4)cc2[nH]1", "IC50": "≤ 0.01"}, {"smiles": "Cc1nc2ccc(-c3ccc4c(c3)CN(c3ncnc(C)c3Cc3ccc(F)c(F)c3)CCO4)cc2[nH]1", "IC50": "0.01 to 0.05"}, {"smiles": "COc1ccc(-c2ccc3c(c2)CN(c2nc(CN(C)C)nc4c2CC(C)(C)CC4)CCO3)cc1OC(F)F", "IC50": "0.01 to 0.05"}, {"smiles": "Cc1nc2ncc(-c3ccc4c(c3)CN(c3ncncc3C)CCO4)cc2[nH]1", "IC50": "0.25 to 1"}, {"smiles": "Cc1nc2ccc(-c3ccc4c(c3)CN(c3ncnc(C)c3Cc3cc(F)cc(F)c3)CCO4)cc2[nH]1", "IC50": "0.01 to 0.05"}, {"smiles": "COc1cc2nccc(N3CCOc4ccc(-c5ccc(-c6ncc[nH]6)cc5)cc4C3)c2cc1OC", "IC50": "0.05 to 0.25"}, {"smiles": "Cc1nc2ccc(-c3ccc4c(c3)CN(c3ncnc5ccc(Cl)cc35)CCO4)cc2[nH]1", "IC50": "0.01 to 0.05"}, {"smiles": "Cc1nc2ncc(-c3ccc4c(c3)CN(c3nc(CN5CCC(F)(F)C5)nc5c3CC(C)(C)CC5)CCO4)cc2[nH]1", "IC50": "0.05 to 0.25"}, {"smiles": "CSc1nc2c(c(N3CCOc4ccc(-c5ccc6nc(C)[nH]c6c5)cc4C3)n1)CCC2", "IC50": "0.25 to 1"}, {"smiles": "CC1(C)CCc2nc(CO)nc(N3CCOc4ccc(-c5cnc6sc(N)nc6c5)cc4C3)c2C1", "IC50": "≤ 0.01"}, {"smiles": "CNC(=O)c1ccc(-c2ccc3c(c2)CN(c2ncnc(C)c2Cc2ccc(F)cc2)CCO3)nc1", "IC50": "0.25 to 1"}, {"smiles": "Cc1nc(N2CCOc3ccc(-c4ccc(-c5ncc[nH]5)cc4)cc3C2)c2ccccc2n1", "IC50": "0.01 to 0.05"}, {"smiles": "Cc1ncc(-c2ccc3c(c2)CN(c2ncnc4c2CCC(C)(C)C4)CCO3)s1", "IC50": "0.25 to 1"}, {"smiles": "Cc1nc2ccc(-c3ccc4c(c3)CN(c3ccnc(C)c3Cc3cccc(F)c3)CCO4)cc2[nH]1", "IC50": "≤ 0.01"}, {"smiles": "COc1c(OCCN(C)C)ccc2c(N3CCOc4ccc(-c5ccc6nc(C)[nH]c6c5)cc4C3)ncnc12", "IC50": "0.25 to 1"}, {"smiles": "Cc1nc(Nc2ccccc2)c(C)c(N2CCOc3ccc(-c4cnc5nc[nH]c5c4)cc3C2)n1", "IC50": "0.01 to 0.05"}, {"smiles": "CN(C)c1nc2ccc(-c3ccc4c(c3)CN(c3ccnc5ccccc35)CCO4)cc2[nH]1", "IC50": "0.25 to 1"}, {"smiles": "COC(=O)Nc1nc2ccc(-c3ccc4c(c3)CN(c3ccnc5cc(OC)c(OC)cc35)CCO4)cc2[nH]1", "IC50": "≤ 0.01"}, {"smiles": "Cc1nc2ccc(-c3ccc4c(c3)CN(c3ncnc5cc(F)ccc35)CCO4)cc2[nH]1", "IC50": "0.01 to 0.05"}, {"smiles": "Cc1nc2ccc(-c3ccc4c(c3)CN(c3ncnc(C)c3Cc3ccc(F)cc3)CCO4)cc2[nH]1", "IC50": "0.01 to 0.05"}, {"smiles": "CC1(C)CCc2ncnc(N3CCOc4ccc(-c5cnc(N)c(S(=O)(=O)NC[C@H]6CCCN6)c5)cc4C3)c2C1", "IC50": "0.05 to 0.25"}, {"smiles": "Cc1nc2ccc(-c3ccc4c(c3)CN(c3ncnc(C)c3C(C)C)CCO4)cc2[nH]1", "IC50": "0.05 to 0.25"}, {"smiles": "CC1(C)CCc2ncnc(N3CCOc4ccc(-c5cnc(N)c(S(=O)(=O)N6CCC(N)CC6)c5)cc4C3)c2C1", "IC50": "0.01 to 0.05"}, {"smiles": "CC[C@H]1CCc2c(nc(C)nc2N2CCOc3ccc(-c4cnc(N)c(S(=O)(=O)N5CCC(C)(N)C5)c4)cc3C2)C1", "note": "(stereo partly specified)", "IC50": "≤ 0.01"}, {"smiles": "Cc1ncnc(N2CCOc3ccc(-c4cc5[nH]c(N)nc5cn4)cc3C2)c1Cc1ccc(F)cc1", "IC50": "0.05 to 0.25"}]}]}
